Measurements: US11591354B2, “Thiamine compound, preparation method and pharmaceutical composition thereof” (SHANGHAI RAISING PHARMACEUTICAL CO., LTD., priority 2018, dated 2023)

What was measured:
Aβ40 = Aβ40 content secreted by HEK293APP/sw overexpression cells after compound treatment (ELISA of supernatant); format: cell-based; conditions: 24 h; for Aβ40 content: APP/293 (HEK293APP/sw) cells, test sample 400 μM, culture supernatant, adjusted by total protein concentration, blank 127.81; for content of Aβ40 compared with benfotiamine in Comparative Example 2: APP/293 cells, 400 μM, in words
Method: (§1) (1) A BCA Protein Concentration Kit was purchased from Beyotime Biotechnology, a detection kit for Aβ40 and Aβ42 was purchased from Wako Co., Ltd., and cell culture related reagents were purchased from Gibico Co., Ltd.
(§2) (2) HEK293APP/sw overexpression cell culture: cells were cultured in a 48-well plate in DMEM culture medium (containing 10% FBS, 100 μg/mL G418 (Geneticin) and diabody), 4 mM stock solution of a test sample (prepared by dissolving the test sample in DMEM culture medium) was diluted to 400 μM in DMEM culture medium at a cell density of 70%, to each well was added 500 μL of the test sample, and the cells were cultured for 24 h.
(§3) (3) To the culture solution supernatant was added a BCA reagent, after incubating for 30 min at room temperature, absorbance of each well was measured at OD […] with a microplate reader, and a total protein concentration was calculated according to a protein standard curve; concentrations of Aβ40 and Aβ42 were measured with supernatant: the supernatant was added into a coated 96-well plate, followed by incubating overnight at 4° C., the reagent was removed and washed, HRP (horseradish peroxidase) labeled antibody was added, followed by incubating for 2 h at 4° C., the reagent was removed and washed, a TMB color developing solution was added, followed by incubating for 30 min at room temperature, a stop solution was added to stop reaction, absorbance of each well was measured at OD […] with a microplate reader, concentrations of Aβ40 and Aβ42 were calculated according to standard curves of A40 and Aβ42 respectively, and finally the concentrations of Aβ40 and Aβ42 were adjusted by using a total protein concentration to obtain a final concentration.

Aβ42 = Aβ42 content secreted by HEK293APP/sw overexpression cells after compound treatment (ELISA of supernatant); format: cell-based; conditions: 24 h; for Aβ42 content: APP/293 (HEK293APP/sw) cells, test sample 400 μM, culture supernatant, adjusted by total protein concentration, blank 11.08; for content of Aβ42 compared with benfotiamine in Comparative Example 2: APP/293 cells, 400 μM, in words
Method: as §1, §2, §3

Row | SMILES | Aβ40 content (Aβ40) [pmol/L] | Aβ42 content (Aβ42) [pmol/L] | content of Aβ40 compared with benfotiamine in Comparative Example 2 (Aβ40) | content of Aβ42 compared with benfotiamine in Comparative Example 2 (Aβ42)
1 | CCCCCCCCCC(=O)S/C(CCOP(=O)(O)O)=C(/C)N(C=O)Cc1cnc(C)nc1N [Example 2, (Z)—S-(2-(N-((4-amino-2-methylpyrimidin-5-yl)methyl) formamido)-5-(phosphonooxy)pent-2-en-3-yl) decanethioate] | 75.15 | 5.37 | – | –
2 | C/C(=C(\CCOP(=O)(O)O)SC(=O)C(C)C)N(C=O)Cc1cnc(C)nc1N [Example 6, (Z)—S-(2-(N-((4-amino-2-methylpyrimidin-5-yl)methyl) formamido)-5-(phosphonooxy)pent-2-en-3-yl) 2-methylpropanethioate] | 44.38 | 2.41 | significantly reduced | significantly reduced
3 | C/C(=C(\CCOP(=O)(O)O)SC(=O)c1ccccc1)N(C=O)Cc1cnc(C)nc1N [Comparative Example 2, benfotiamine, reference compound] | 53.77 | 5.04 | – | –
4 | C=CCCCC(=O)S/C(CCOP(=O)(O)O)=C(/C)N(C=O)Cc1cnc(C)nc1N [Example 9, (Z)—S-(2-(N-((4-amino-2-methylpyrimidin-5-yl)methyl) formamido)-5-(phosphonooxy)pent-2-en-3-yl) hex-5-enethioate] | 80.40 | 5.70 | – | –
5 | CCC(C)(C)C(=O)S/C(CCOP(=O)(O)O)=C(/C)N(C=O)Cc1cnc(C)nc1N [Example 16, (Z)—S-(2-(N-((4-amino-2-methylpyrimidin-5-yl)methyl) formamido)-5-(phosphonooxy)pent-2-en-3-yl) 2,2-dimethylbutanethioate] | 85.96 | 33.70 | – | –
6 | CCCCCCCCCCCC(=O)S/C(CCOP(=O)(O)O)=C(/C)N(C=O)Cc1cnc(C)nc1N [Example 3, (Z)—S-(2-(N-((4-amino-2-methylpyrimidin-5-yl)methyl) formamido)-5-(phosphonooxy)pent-2-en-3-yl) dodecanethioate] | 128.90 | 4.93 | – | –
7 | CCCC(=O)S/C(CCOP(=O)(O)O)=C(/C)N(C=O)Cc1cnc(C)nc1N [Example 1, (Z)—S-(2-(N-((4-amino-2-methylpyrimidin-5-yl)methyl) formamido)-5-(phosphonooxy)pent-2-en-3-yl) butanethioate] | 45.47 | 8.59 | – | –
8 | CCC/C=C/C(=O)S/C(CCOP(=O)(O)O)=C(/C)N(C=O)Cc1cnc(C)nc1N [Example 12, (E)-S—((Z)-2-(N-((4-amino-2-methylpyrimidin-5-yl)methyl) formamido)-5-(phosphonooxy)pent-2-en-3-yl) hex-2-enethioate] | 32.87 | 0.34 | significantly reduced | significantly reduced
9 | CCC(C)C(=O)S/C(CCOP(=O)(O)O)=C(/C)N(C=O)Cc1cnc(C)nc1N (stereo not drawn) [Example 5, (Z)—S-(2-(N-((4-amino-2-methylpyrimidin-5-yl)methyl) formamido)-5-(phosphonooxy)pent-2-en-3-yl) 2-methylbutanethioate] | 37.65 | 2.09 | significantly reduced | significantly reduced
10 | C/C(=C(\CCOP(=O)(O)O)SC(=O)CCc1ccccc1)N(C=O)Cc1cnc(C)nc1N [Example 8, (Z)—S-(2-(N-((4-amino-2-methylpyrimidin-5-yl)methyl) formamido)-5-(phosphonooxy)pent-2-en-3-yl) 3-phenylpropanethioate] | 57.86 | 6.38 | – | –
11 | CCCCC(C)C(=O)S/C(CCOP(=O)(O)O)=C(/C)N(C=O)Cc1cnc(C)nc1N (stereo not drawn) [Example 15, (Z)—S-(2-(N-((4-amino-2-methylpyrimidin-5-yl)methyl) formamido)-5-(phosphonooxy)pent-2-en-3-yl) 2-methylhexanethioate] | 40.39 | 9.59 | – | –
12 | C/C=C(\C)C(=O)S/C(CCOP(=O)(O)O)=C(/C)N(C=O)Cc1cnc(C)nc1N [Example 4, (E)-S—((Z)-2-(N-((4-amino-2-methylpyrimidin-5-yl)methyl) formamido)-5-(phosphonooxy)pent-2-en-3-yl) 2-methylbut-2-enethioate] | 71.80 | 5.77 | – | –
13 | CCCCCCCC(=O)S/C(CCOP(=O)(O)O)=C(/C)N(C=O)Cc1cnc(C)nc1N [Example 7, (Z)—S-(2-(N-((4-amino-2-methylpyrimidin-5-yl)methyl) formamido)-5-(phosphonooxy)pent-2-en-3-yl) octanethioate] | 106.81 | 6.09 | – | –
14 | CCCCC(CC)C(=O)S/C(CCOP(=O)(O)O)=C(/C)N(C=O)Cc1cnc(C)nc1N (stereo not drawn) [Example 13, (Z)—S-(2-(N-((4-amino-2-methylpyrimidin-5-yl)methyl) formamido)-5-(phosphonooxy)pent-2-en-3-yl) 2-ethylhexanethioate] | 56.28 | 24.36 | – | –
15 | C/C(=C(\CCOP(=O)(O)O)SC(=O)Cc1c(F)cccc1F)N(C=O)Cc1cnc(C)nc1N [Example 10, (Z)—S-(2-(N-((4-amino-2-methylpyrimidin-5-yl)methyl) formamido)-5-(phosphonooxy)pent-2-en-3-yl) 2-(2,6-difluorophenyl) ethanethioate] | 71.11 | 10.62 | – | –
16 | CCCCC(C)(C)C(=O)S/C(CCOP(=O)(O)O)=C(/C)N(C=O)Cc1cnc(C)nc1N [Example 17, (Z)—S-(2-(N-((4-amino-2-methylpyrimidin-5-yl)methyl) formamido)-5-(phosphonooxy)pent-2-en-3-yl) 2,2-dimethylhexanethioate] | 77.22 | 6.24 | – | –
17 | CCCC(C)C(=O)S/C(CCOP(=O)(O)O)=C(/C)N(C=O)Cc1cnc(C)nc1N (stereo not drawn) [Example 14, (Z)—S-(2-(N-((4-amino-2-methylpyrimidin-5-yl)methyl) formamido)-5-(phosphonooxy)pent-2-en-3-yl) 2-methylpentanethioate] | 60.34 | 6.79 | – | –
18 | C=CC(C)(C)C(=O)S/C(CCOP(=O)(O)O)=C(/C)N(C=O)Cc1cnc(C)nc1N [Example 11, (Z)—S-(2-(N-((4-amino-2-methylpyrimidin-5-yl)methyl) formamido)-5-(phosphonooxy)pent-2-en-3-yl) 2,2-dimethylbut-3-enethioate] | 54.75 | 3.22 | substantially the same | reduced
